According to the NIST ThermoML archive (doi:10.1021/je800048f):
± gives the expanded uncertainty stated by the source.

Conditions: 298.15 K, 101.33 kPa, Liquid; for viscosity: Capillary tube (Ostwald / Ubbelohde) method

| mass density [kg/m3] | viscosity [mPa·s] | Structure (SMILES) |
| --- | --- | --- |
| 655.07 ± 0.98 | 0.2949 ± 0.0048 | CCCCCC [hexane] |
| 797.77 ± 0.62 | 3.353 ± 0.027 | CC(C)CO [2-methyl-1-propanol] |
| 780.78 ± 0.65 | 4.384 ± 0.038 | CC(C)(C)O [2-methylpropan-2-ol] |

| Structure (SMILES) | mass density [kg/m3] | viscosity [mPa·s] |
| --- | --- | --- |
| CCCCCl [1-chlorobutane] | 880.69 ± 0.61 | 0.4235 ± 0.0054 |
